Patent EP4671240A1, “SALT CONTAINING AROMATIC RING DERIVATIVE ANTAGONIST, PREPARATION METHOD THEREFOR, AND APPLICATION THEREOF” (Jiangsu Hansoh Pharmaceutical Group Co., Ltd., priority 2023, dated 2024)

Assays:
[1] = Liver microsomal metabolism stability assay (rat); format: in vitro ADME; details: compound 1 µM; for half-life at 1 µM: rat liver microsomes 0.5 mg/mL, NADPH/UDPGA, read-out: Rat t1/2; for Rat Remaining rate: rat liver microsomes, 60 min
Protocol: (§1) The objective of this experiment was to detect the stability of the example compounds in liver microsomes of rats, dogs and humans.
(§2) Formulation of compound working solution: compound stock solution was added to phosphate buffer to a final concentration of 20 µM.
(§3) Dilution was performed with 100 mM phosphate buffer to a final concentration of 0.625 mg/mL.
(§4) NADPH (reduced nicotinamide adenine dinucleotide phosphate) and UDPGA (uridine diphosphate glucuronic acid) were weighed, and 100 mM phosphate buffer was added to a final concentration of 20 mM.
(§5) 1 mg of Alamethicin was weighed, and 200 µL of DMSO was added to formulate a 5 mg/mL solution. Then dilution was performed with phosphate buffer to a final concentration of 50 µg/mL.
(§6) Stop solution: cold acetonitrile containing 100 ng/mL labetalol hydrochloride and 400 ng/mL tolbutamide as internal standards.
(§7) 400 µL of formulated liver microsomes, 25 µL of compound working solution and 25 µL of Alamethicin were added in sequence to a 96-well plate, and the mixture was pre-incubated at 37°C for 10 min. Then 50 µL of formulated NADPH/UDPGA was added to start the reaction and the mixture was incubated at 37°C. The total volume of the reaction system was 500 µL. The final contents of each component are as follows:
(§8) • Instrument: Shimadzu LC-30 AD; • Chromatographic column: XBridge® C18 (50*4.6 mm, 5 µm particle size); • Mobile phase: A: 0.1% formic acid solution, B: methanol • Elution gradient: 0.2-1.6 min 5% A to 95% A, 3.0-3.1 min 95% A to 5% A • Run time: 4.0 min.
(§9) • Instrument: API5500 liquid chromatography-mass spectrometer, AB Sciex; • Ion source: electrospray ionization source (ESI); • Drying gas: N2, temperature 500°C; • Electrospray voltage: 5000 V; • Detection mode: positive ion detection; • Scan mode: Multiple Reaction Monitoring (MRM) mode.

[2] = Liver microsomal metabolism stability assay (dog); format: in vitro ADME; details: compound 1 µM; for half-life at 1 µM: dog liver microsomes 0.5 mg/mL, NADPH/UDPGA, read-out: Dog t1/2; for Dog Remaining rate: dog liver microsomes, 60 min
Protocol: as §1, §2, §3, §4, §5, §6, §7, §8, §9

SMILES | half-life at 1 µM [1] [min] | Rat Remaining rate [1] [%] | half-life at 1 µM [2] [min] | Dog Remaining rate [2] [%]
[2H]C([2H])(c1ccc(-c2ccccc2S(=O)(=O)Nc2noc(C)c2Cl)c(COCC)c1)N1C(=O)C2(CCCC2)N=C1CCCC [Example 2, 4'-((2-Butyl-4-oxo-1,3-diazaspiro[4.4]non-1-en-3-yl)methyl-d2)-N-(4-chloro-5-methylisoxazol-3-yl)-2'-(ethoxymethyl)-[1,1'-biphenyl]-2-sulfonamide] | 26.3 | 29.4 | 29.9 | 24.6
CCCCC1=NC2(CCCC2)C(=O)N1Cc1ccc(-c2ccccc2S(=O)(=O)Nc2noc(C)c2Cl)c(COCC)c1 [Example 8, 2-[4-[(2-Butyl-4-oxo-1,3-diazaspiro[4.4]non-1-en-3-yl)methyl]-2-(ethoxymethyl)phenyl]-N-(4-chloro-5-methyl-isoxazol-3-yl)benzenesulfonamide] | 29.9 | 23.3 | 28.5 | 23.6
